# Tested on: breast cancer cells (4T1.2, EO771)
# Assay: Boyden chamber assay, cancer cell migration
# Format: cell-based, mouse
# Protocol: FIGS. 11A-11C. Lactate-activated macrophage promotes cancer cell adhesion, migration and invasion via Gpr132. (FIG. 11A) Adherence assays. 4T1.2 cells were suspended in fibronectin ([…]) pre-coated plates with CM from spleen-derived macrophages (mf) that were treated with 4T1.2 CM or lactate (5 mM) with or without Gpr132 antibody (6 mg/ml) or normal IgG (6 mg/ml) for 10 min. The adhered cells were stained with crystal violet, dissolved in 1% Triton X-100 and measured by OD590. (FIGS. 11B-11C) Boyden chamber assay of cancer cell migration and invasion. 4T1.2 cells (B) or EO771 cells (FIG. 11C) were plated on the upper chamber inserts, with untreated (Control), 4T1.2 CM-activated or lactate-activated spleen-derived WT or Gpr132-KO macrophages plated in the lower chambers. For invasion assay, the inserts were pre-coated with 60 μl matrigel. After migration for 6 hrs (FIG. 11B) or invasion for 24 hrs (FIG. 11C), the migrated or invaded cells were stained with crystal violet and counted as cells per field of view under microscope (n=3-4); For (FIG. 11C), the first bar of each data set of the bar graphs represents the control mf, and the second bar represents Gpr132KO; *p<0.05; **p<0.01; ***p<0.005; ****p<0.001. Scale bar, 500 μm.
# FIGS. 23A-23B. Cancer cell-derived lactate activates macrophages to promote cancer cell migration and invasion via Gpr132. (FIGS. 23A-23B) Boyden chamber assay. EO771 or 4T1.2 cells were cultured in the presence or absence of oxamic acid (90 mM) for 3 days. CM was harvested after the cells were cultured for another 24 hrs without oxamic acid. As a rescue, CM of oxamic acid-treated EO771 or 4T1.2 cells was supplemented with exogenous lactate. […] After migration for 6 hrs (FIG. 23A) or invasion for 24 hrs (FIG. 23B), the migrated or invaded cells were stained with crystal violet and counted as cells per field of view under microscope (n=3-4); for (FIG. 23A), the bars in each data set of the bar graph represent, from left to right, control, EO771, Oxamic acid, and Oxamic acid+Lactate; for (FIG. 23B), the bars in each data set of the bar graph represent, from left to right, control, 4T1.2CM, Oxamic acid, and Oxamic acid+Lactate; *p<0.05; ****p<0.001. […]
# Migration or invasion of breast cancer cells was examined using 24-well Boyden chambers (Corning, Corning, N.Y.) with transwell inserts of […] pore size, coated without (for migration) or with matrigel (for invasion) as previously reported. […] The migrated or invaded cells were fixed with methanol and stained with crystal violet (0.05%, sigma), and then counted as cells per field of view under microscope or measured as OD570 after crystal violet was dissolved.
smiles,measurement,setting,value
CC(O)C(=O)O (stereo not drawn) [lactate],number of migrated cancer cells with activated WT macrophages,"4T1.2 cells, 6 hrs, vs untreated WT macrophages",significantly enhanced
same,effects on cancer cell migration with Gpr132-KO macrophages,Gpr132 deletion in macrophages,attenuated
same,rescue of migration by addition to oxamic acid-pretreated cancer cell CM,"exogenous lactate, WT macrophages",restored

# From patent publication US20210095293A1, “METHODS OF TREATING CANCERS WITH GPR132 INHIBITORS” (The Board of Regents of the University of Texas System, priority 2016, published 2021)
